The record followed here is US20240099991A1, “HOST DIRECTED DRUG COMBINATIONS FOR TREATMENT OF VIRAL INFECTIONS” (priority 2021, published 2024).

For series [1], the system named is SARS-CoV-2. In words: In vivo efficacy against SARS-CoV-2 in Syrian Golden Hamster Model (lung viral load). Conditions: oral, once daily for 3 days (1-3 DPI), Atovaquone 200 mg/kg, Cepharantine 8 mg/kg, combination 200 + 8 mg/kg. The source says:
In vivo efficacy evaluation of Atovaquone and Cepharanthine alone and in combination against SARS-CoV-2 in Syrian Golden Hamster Model [Study Protocol Reference:) Syrian hamsters as a small animal model for SARS-CoV-2 infection and countermeasure development. Masaki Imai et al., PNAS 2020, 117(28)16587-16595]
Data Analysis One way ANOVA-Dunnett's multiple comparison test

Series [2] has as its system SARS-CoV-2. The format is cell-based.
Series [3] relates to Vero E6 cells. In words: Cytotoxicity of test agents in the Vero E6 checkerboard assay. Conditions: Experiment 2, highest concentration tested.
Series [4] has as its system Vero E6 cells.

Read-outs that look alike come from different tables or passages of the source.

Regarding `O=C1C(O)=C([C@H]2CC[C@H](c3ccc(Cl)cc3)CC2)C(=O)c2ccccc21` [Atovaquone, atovaquone], in the series with SARS-CoV-2 [1], the “Mean Difference (Log10PFU/lung), Infection Control vs. group” value (“Mean Difference (Log10PFU/lung)” below) turned out to be 0.74 Log10PFU/lung. The antiviral efficacy result in the series on SARS-CoV-2 [2] (0.12-0.37, alone) is “inactive”. Moreover, the “inhibition of virus induced cytopathic effects (CPE)” value (“inhibition” for short) in the series with SARS-CoV-2 [2] (Experiment 1, Atovaquone 0.12 micromol alone (Niclosamide 0.00)) stood at 2.38%; in the series on SARS-CoV-2 [2] (Experiment 1, Atovaquone 0.37 micromol alone (Niclosamide 0.00)) it was 9.52%; in the series on SARS-CoV-2 [2] (Experiment 1, Atovaquone 1.10 micromol alone (Niclosamide 0.00)) it was 16.67%; in the series with SARS-CoV-2 [2] (Experiment 1, Atovaquone 3.30 micromol alone (Niclosamide 0.00)), 50.00%; with SARS-CoV-2 [2] (Experiment 2, Atovaquone 0.12 micromol alone (Cepharanthine 0.00)), 2.38%; in the series with SARS-CoV-2 [2] (Experiment 2, Atovaquone 0.37 micromol alone (Cepharanthine 0.00)), 9.52%. Also, the “inhibition” value with SARS-CoV-2 [2] (Experiment 2, Atovaquone 1.10 micromol alone (Cepharanthine 0.00)) was determined as 16.67%; in the series with SARS-CoV-2 [2] (Experiment 2, Atovaquone 3.30 micromol alone (Cepharanthine 0.00)) it was 50.00%. Also, the “inhibits virus induced cytopathic effects (CPE)” value with SARS-CoV-2 [2] (concentration of 3.3 micro mol) amounted to 50%.
For `COc1ccc2cc1Oc1ccc(cc1)C[C@H]1c3c(cc4c(c3Oc3cc5c(cc3OC)CCN(C)[C@@H]5C2)OCO4)CCN1C` [Cepharanthine, cepharantine], the “Mean Difference (Log10PFU/lung)” value in the series on SARS-CoV-2 [1] was determined as 0.42 Log10PFU/lung. Besides, in the series with Vero E6 cells [3], the cytotoxicity result was “neither cepharantine nor atovaquone are cytotoxic”. Also, the antiviral efficacy result with SARS-CoV-2 [2] (0.04-0.12 micromole, alone) was “inactive”. In addition, the “inhibition” value with SARS-CoV-2 [2] (Cepharanthine 0.04 micromol alone (Atovaquone 0.00)) is on record as 7.14%; in the series with SARS-CoV-2 [2] (Cepharanthine 0.12 micromol alone (Atovaquone 0.00)) it was 9.52%; in the series with SARS-CoV-2 [2] (Cepharanthine 0.37 micromol alone (Atovaquone 0.00)), 14.29%; in the series with SARS-CoV-2 [2] (Cepharanthine 1.10 micromol alone (Atovaquone 0.00)), 38.10%.
With `O=C(Nc1ccc([N+](=O)[O-])cc1Cl)c1cc(Cl)ccc1O` [Niclosamide, niclosamide], in the series with Vero E6 cells [4], the cytotoxicity entry is on record as “non cytotoxic”. Further, the antiviral efficacy entry in the series with SARS-CoV-2 [2] (0.12 to 0.37 micromolar, without the addition of atovaquone) is “inactive”; in the series on SARS-CoV-2 [2] (concentrations ranging from 0.12 to 1,1 micro mol), “non-efficacious”. Also, the “inhibition” value with SARS-CoV-2 [2] (Niclosamide 0.12 micromol alone (Atovaquone 0.00)) was 11.90%; with SARS-CoV-2 [2] (Niclosamide 0.37 micromol alone (Atovaquone 0.00)) it was 9.52%; with SARS-CoV-2 [2] (Niclosamide 1.10 micromol alone (Atovaquone 0.00)), 16.67%.
As to `CCC(CC)COC(=O)[C@H](C)N[P@](=O)(OC[C@H]1O[C@@](C#N)(c2ccc3c(N)ncnn23)[C@H](O)[C@@H]1O)Oc1ccccc1` [Remdesivir], the “Mean Difference (Log10PFU/lung)” value in the series with SARS-CoV-2 [1] stood at 0.97 Log10PFU/lung.
